Reference: ChEMBL document CHEMBL5335843, “Application of tobramycin benzyl ether as an antibiotic adjuvant capable of sensitizing multidrug-resistant Gram-negative bacteria to rifampicin” (2024)
In brackets after ≈: the same amount, converted by molar mass. Positions of bridges follow the written chain, without caps; N, C: chain ends. Non-standard residues stand in square brackets, D forms with d. Residues, ends and D or L forms follow the SMILES beside them. *: point of attachment. X1 = CC[C@H](C)CCCCC(=O)*; Dab = NCC[C@H](N)C(=O)O

Assays:
Assay type in all cases: functional
Acinetobacter baumannii [1] = experiment: Antibacterial activity against Acinetobacter baumannii ATCC 17978 assessed as inhibition of bacterial growth incubated for 18 hrs by two fold broth microdilution assay
Pseudomonas aeruginosa [2] = experiment: Antibacterial activity against Pseudomonas aeruginosa PAO1 assessed as inhibition of bacterial growth incubated for 18 hrs by two fold broth microdilution assay
Escherichia coli [3] = experiment: Antibacterial activity against Escherichia coli ATCC 25922 assessed as inhibition of bacterial growth incubated for 18 hrs by two fold broth microdilution assay
Enterococcus faecium [4] = experiment: Antibacterial activity against Enterococcus faecium 114278 assessed as inhibition of bacterial growth incubated for 18 hrs by two fold broth microdilution assay
Staphylococcus aureus = experiment: Antibacterial activity against methicilin-resistant Staphylococcus aureus assessed as inhibition of bacterial growth incubated for 18 hrs by two fold broth microdilution assay
Enterococcus faecium [5] = experiment: Antibacterial activity against Enterococcus faecium 128149 assessed as inhibition of bacterial growth incubated for 18 hrs by two fold broth microdilution assay
Acinetobacter baumannii [6] = experiment: Antibiotic adjuvant activity against Acinetobacter baumannii ATCC 17978 assessed as fold potentiation incubated for 18 hrs in presence of Rifampicin by two fold broth microdilution checkerboard assay
Pseudomonas aeruginosa [7] = experiment: Antibiotic adjuvant activity against Pseudomonas aeruginosa PAO1 assessed as fold potentiation incubated for 18 hrs in presence of Rifampicin by two fold broth microdilution checkerboard assay
Acinetobacter baumannii [8] = experiment: Antibiotic adjuvant activity against Acinetobacter baumannii ATCC 17978 assessed as rifampicin MIC incubated for 18 hrs in presence of Rifampicin by two fold broth microdilution checkerboard assay
Escherichia coli [9] = experiment: Antibiotic adjuvant activity against Escherichia coli ATCC 25922 assessed as rifampicin MIC incubated for 18 hrs in presence of Rifampicin by two fold broth microdilution checkerboard assay
Escherichia coli [10] = experiment: Antibiotic adjuvant activity against Escherichia coli ATCC 25922 assessed as fold potentiation incubated for 18 hrs in presence of Rifampicin by two fold broth microdilution checkerboard assay
Pseudomonas aeruginosa [11] = experiment: Antibacterial activity against multi-drug resistant Pseudomonas aeruginosa clinical isolate PA264 assessed as inhibition of bacterial growth incubated for 18 hrs by two fold broth microdilution assay
Escherichia coli [12] = experiment: Antibacterial activity against multi-drug resistant Escherichia coli clinical isolate EC94474 assessed as inhibition of bacterial growth incubated for 18 hrs by two fold broth microdilution assay
Escherichia coli [13] = experiment: Antibacterial activity against multi-drug resistant Escherichia coli clinical isolate EC107115 assessed as inhibition of bacterial growth incubated for 18 hrs by two fold broth microdilution assay
Pseudomonas aeruginosa [14] = experiment: Antibacterial activity against multi-drug resistant Pseudomonas aeruginosa clinical isolate PA259 assessed as inhibition of bacterial growth incubated for 18 hrs by two fold broth microdilution assay
Pseudomonas aeruginosa [15] = experiment: Antibacterial activity against multi-drug resistant Pseudomonas aeruginosa clinical isolate PA262 assessed as inhibition of bacterial growth incubated for 18 hrs by two fold broth microdilution assay
Pseudomonas aeruginosa [16] = experiment: Antibacterial activity against multi-drug resistant Pseudomonas aeruginosa clinical isolate PA101243 assessed as inhibition of bacterial growth incubated for 18 hrs by two fold broth microdilution assay
Pseudomonas aeruginosa [17] = experiment: Antibacterial activity against multi-drug resistant Pseudomonas aeruginosa clinical isolate PA114228 assessed as inhibition of bacterial growth incubated for 18 hrs by two fold broth microdilution assay

MIC (Acinetobacter baumannii [1]) [µg/mL]	MIC (Pseudomonas aeruginosa [2]) [µg/mL]	MIC (Escherichia coli [3]) [µg/mL]	Compound	also measured
> 128	> 128	> 128	CC(C)(C)c1ccc(COC[C@H]2O[C@H](O[C@@H]3[C@@H](OCc4ccc(C(C)(C)C)cc4)[C@H](O[C@H]4O[C@H](CN)[C@@H](OCc5ccc(C(C)(C)C)cc5)C[C@H]4N)[C@@H](N)C[C@H]3N)[C@H](OCc3ccc(C(C)(C)C)cc3)[C@@H](N)[C@@H]2OCc2ccc(C(C)(C)C)cc2)cc1.Cl	
> 128	> 128	> 128	Cl.NC[C@H]1O[C@H](O[C@H]2[C@H](OCc3cc(Cl)cc(Cl)c3)[C@@H](O[C@H]3O[C@H](COCc4cc(Cl)cc(Cl)c4)[C@@H](OCc4cc(Cl)cc(Cl)c4)[C@H](N)[C@H]3OCc3cc(Cl)cc(Cl)c3)[C@H](N)C[C@@H]2N)[C@H](N)C[C@@H]1OCc1cc(Cl)cc(Cl)c1	
			CC[C@H](C)CCCCC(=O)N[C@@H](CCN)C(=O)N[C@H](C(=O)N[C@@H](CCN)C(=O)N[C@H]1CCNC(=O)[C@H]([C@@H](C)O)NC(=O)[C@H](CCN)NC(=O)[C@H](CCN)NC(=O)[C@H](CC(C)C)NC(=O)[C@@H](Cc2ccccc2)NC(=O)[C@H](CCN)NC1=O)[C@@H](C)O (X1-[Dab]T[Dab][Dab][Dab][dF]L[Dab][Dab]T; lactam 4-C)	MIC (Enterococcus faecium [4]): > 128 µg/mL; MIC (Staphylococcus aureus): > 128 µg/mL; MIC (Enterococcus faecium [5]): > 128 µg/mL
> 128	> 128	> 128	CC(C)CCO[C@@H]1[C@@H](OCCC(C)C)[C@H](N)C[C@H](N)[C@H]1O[C@H]1O[C@H](CN)[C@@H](OCCC(C)C)C[C@H]1N.Cl	fold change (FC) (Acinetobacter baumannii [6]): 4; fold change (FC) (Pseudomonas aeruginosa [7]): 4; MIC (Acinetobacter baumannii [8]): 0.5 µg/mL; MIC (Escherichia coli [9]): 0.0156 µg/mL; fold change (FC) (Escherichia coli [10]): 512
> 128	> 128	> 128	Cl.NC[C@H]1O[C@H](O[C@H]2[C@H](OCc3ccc(-c4ccccc4)cc3)[C@@H](O[C@H]3O[C@H](COCc4ccc(-c5ccccc5)cc4)[C@@H](OCc4ccc(-c5ccccc5)cc4)[C@H](N)[C@H]3OCc3ccc(-c4ccccc4)cc3)[C@H](N)C[C@@H]2N)[C@H](N)C[C@@H]1OCc1ccc(-c2ccccc2)cc1	
16	16	4	CC(C)CCOC[C@H]1O[C@H](O[C@@H]2[C@@H](OCCC(C)C)[C@H](O[C@H]3O[C@H](CN)[C@@H](OCCC(C)C)C[C@H]3N)[C@@H](N)C[C@H]2N)[C@H](OCCC(C)C)[C@@H](N)[C@@H]1OCCC(C)C.Cl	fold change (FC) (Acinetobacter baumannii [6]): 2048; fold change (FC) (Pseudomonas aeruginosa [7]): 16; MIC (Acinetobacter baumannii [8]): 0.004 µg/mL
			CN(C)c1ccc(O)c2c1C[C@H]1C[C@H]3[C@H](N(C)C)C(O)=C(C(N)=O)C(=O)[C@@]3(O)C(O)=C1C2=O [MINOCYCLINE]	MIC (Pseudomonas aeruginosa [11]): 32 µg/mL (≈ 69.9 µM); MIC (Escherichia coli [12]): 64 µg/mL (≈ 140 µM); MIC (Escherichia coli [13]): 32 µg/mL (≈ 69.9 µM); MIC (Pseudomonas aeruginosa [14]): 128 µg/mL (≈ 280 µM); MIC (Pseudomonas aeruginosa [15]): 256 µg/mL (≈ 560 µM); MIC (Pseudomonas aeruginosa [16]): 64 µg/mL (≈ 140 µM); MIC (Pseudomonas aeruginosa [17]): 128 µg/mL (≈ 280 µM)

Compound	MIC (Acinetobacter baumannii [1]) [µg/mL]	MIC (Pseudomonas aeruginosa [2]) [µg/mL]	MIC (Escherichia coli [3]) [µg/mL]	also measured
NC[C@H]1O[C@H](O[C@H]2[C@H](O)[C@@H](O[C@H]3O[C@H](CO)[C@@H](O)[C@H](N)[C@H]3O)[C@H](N)C[C@@H]2N)[C@H](N)C[C@@H]1O [TOBRAMYCIN]	0.5 (≈ 1.07 µM)	1 (≈ 2.14 µM)	2 (≈ 4.28 µM)	
